“Also recorded” adds a separate entry of the source.

Data on four compounds can be found in US20240393319A1, “FLUORESCENT SENSORS AND METHODS OF MAKING AND USING” (Howard Hughes Medical Institute, priority 2023, published 2024).

In test [1] the test system is nerve terminals of hippocampal neurons. The experiment in a line: Nerve terminal ATP in cultured neurons (iATPSnFR2.HaloTag-JFX650). The test is classed as cell-based, Sprague-Dawley rats.
In test [2] the test system is axonal mitochondria of primary hippocampal neurons. Kind of test: Mitochondrial ATP in primary hippocampal neurons (mito-iATPSnFR2.A95A.A119L.HaloTag). To be noted: 10 μM KA in 5 mM glucose. It counts as cell-based, Sprague-Dawley rats. As to the method:
Primary neuronal cultures were prepared as previously described. Hippocampal CA1 to CA3 regions were dissected, dissociated, and plated onto poly-L-ornithine-coated coverslips. Plating media consisted of the minimal essential medium, 0.5% glucose, insulin (0.024 g/l), transferrin ([…]), GlutaMAX 1%, N-21 (2%), and fetal bovine serum (10%). After 1-3 days in vitro (DIV), cells were fed and maintained in media with the following modifications: cytosine β-D-arabinofuranoside (4 μM) and FBS 5%. Cultures were incubated at 37° C. in a 95% air/5% CO2 incubator. Calcium phosphate-mediated gene transfer was performed on DIV 6-8, and neurons were used for experiments on DIV 14-21.
Coverslips were loaded onto a custom chamber, mounted on a […], 2.5 mM KCl, […], 25 mM HEPES, 2 mM CaCl2), 2 mM MgCl2, 50 μM DL-2-amino-5-phosphonovaleric acid (APV, AP5), 10 μM 6-cyano-7-nitroquinoxaline-2,3-dione (CNQX), adjusted to pH 7.4. […] Fluorescence was stimulated with OBIS 488 nm LX or OBIS 637 nm LS lasers (Coherent) passing through a laser speckle reducer (LSR 3005 at 12° diffusion angle, Optotune). […]
Time series of imaging pairs (HaloTag and iATPSnFR2) were automated split into two independent image series using a custom-written Fiji routine to facilitate analysis. […] Synaptic boutons signals were analyzed using homemade script routines in Igor-pro v 6.3.7.2 (Wavemetric, Lake Oswego, OR, USA). […]

The subject of test [3] is synaptic boutons of hippocampal neurons. Kind of test: Syn-iATPSnFR2.HaloTag imaging of ATP depletion in boutons. The test is classed as cell-based, rat. The conditions noted are these: 5 mM glucose + 10 μM KA + 0.3 μM TTX.
The next test relates to DJ-1 KD neurons. The experiment in a line: Synaptic endurance in DJ-1 knock-down neurons. The conditions noted are these: TZ. It counts as cell-based, Sprague-Dawley rats. From the text: (§1) FIG. 11A-11H are experimental results showing that PARK7/DJ-1 is necessary for PGK1 driven hypometabolic resilience.
(§2) An unbiased chemical screen recently led to the identification of an interaction between PGK1 and DJ-1, the product of the PARK7 gene, a genetic driver of familial PD. DJ-1 is a chaperone with strong structurally similarity to HSP31 but the precise clientele that it supports related to PD is poorly understood. To investigate whether DJ-1 has a functional impact on PGK1 function, we probed PGK1 rescue of hypometabolic synaptic function, but in absence of DJ-1. […] Furthermore, when glucose was substituted with a mixture of lactate and pyruvate, SV recycling kinetics in DJ-1 KD neurons was indistinguishable from control.

For test [4], the system named is primary hippocampal neurons. Kind of test: Synaptic endurance (vGlutI-pH) under repeated stimulation in 0.1 mM glucose. It counts as cell-based, rat.
Test [5] concerns nerve terminals of primary hippocampal neurons. Kind of test: Presynaptic ATP dynamics with synapto-iATPSnFR2-miRFP670nano3. The test is classed as cell-based, rat. The conditions noted are these: 0.1 mM glucose. From the text: For synapto-iATPSnFR2-miRFP670nano3 experiments, nerve terminals were selected in the miRFP670nano3 channels, blind to the ATPsnfr channel and then background subtracted. The traces are reported as iATPsnfr2 to miRFP670nano3 ratio, Fratio.

Test [6] has as its system DJ-1 KD neurons, nerve terminals. The experiment in a line: Presynaptic ATP in DJ-1 knock-down neurons. The test is classed as cell-based, Sprague-Dawley rats. The conditions noted are these: TZ.
Source text: as §1, §2

Test [7] is described as follows: Stopped-flow fluorescence kinetics of ATP binding. As to the method:
Final concentration of protein was thus 0.1 μM.

Test [8] has as its system nerve terminals of dissociated hippocampal neurons. The experiment in a line: Cytosolic ATP in nerve terminals during action potential firing. It counts as cell-based, rat. The conditions noted are these: 6 sec at 50 Hz, 5 mM glucose + 10 μM KA.
Another test deals with Rho° (ρ^0) cells. The experiment in a line: Green:red fluorescence (ATP) on treatment. It counts as cell-based, mouse. The conditions noted are these: 10 mM 2dOG replacing glucose. As for the experimental part: (§3) Rho° and the parental LMTK-cells were maintained in T-75 flasks with DMEM+10% FBS+1 mM pyruvate+5 μM uridine. Two days prior to transfection, they were split into a 24-well plate (half Rho°, half LMTK) at 0.6 and 0.1 million cells per well, respectively. Cells were transfected with iATPSnFR2.HaloTag variants by lipofectamine (0.5 μg DNA+2 μL lipofectamine 2000 per well) for 4-6 hours in DMEM lacking FBS or antibiotics. Transfection media was replaced with fresh DMEM+10% FBS+penicillin/streptomycin overnight. Cells were labeled with JFX650 HaloTag ligand by adding the fluorophore to 100 nM for an hour. Cells were washed with Mammalian Cell Imaging Buffer and imaged in a Cytation 5 imaging reader (BioTek) over the course of about 2 hours. After about 20 minutes of imaging to establish a baseline fluorescence, the culture plate was removed from the instrument and buffer was replaced with the query buffer. The equilibration buffer contained 10 mM glucose, and the query buffers contained 10 mM 2dOG.
(§4) Images were background subtracted and aligned for movement artefacts with the Gen5 software package that controls the Cytation 5 instrument. Images were assembled as TIF stacks and imported into ImageJ. […] Those ROIs were used to determine the ratio of green to red fluorescence for each well. […]

In test [9] the test system is LMTK- cells (parental fibroblast cell line). The experiment in a line: Green:red fluorescence (ATP) on treatment. It counts as cell-based, mouse. To be noted: 10 mM 2dOG replacing glucose. As to the method: as §3, §4

As to `CC(C)[C@H]1CC[C@@]2(CO2)[C@H]2C(=O)OCC(C(=O)O)=C[C@H]12` [koningic acid], in test [1] (10 μM KA with 0.3 μM TTX), the “decline of average green to red ratio (ATP) without activity” value is recorded as “gradually declined over a 5-10 min period” and the “time for ATP depletion in single boutons after delay” value lay within 10 to 20 s. Besides, the “change in fluorescence (ATP) during action potential firing” value in [1] (10 μM KA, 5 mM glucose, 50 Hz 6 sec) was “even greater decrease in fluorescence that did not recover within the minute and a half observation window”. In addition, in test [2], the “change in mitochondrial ATP” value was “gradual decrease of [ATP]”. Further, the “average green to red fluorescence ratio in boutons” value in [3] was “gradually declined over a 5-10 min period”.
For the compound `COc1cc2nc(N3CCN(C(=O)C4CCCO4)CC3)nc(N)c2cc1OC` (centres unmarked) [TZ, Terazosin], the “recycling restoration: slowing of SV recycling after intense stimulation” value with DJ-1 KD neurons is reported as “could not be reversed”. Besides, the “synaptic endurance in low glucose” value in test [4] (1 μM) is on record as “ineffective”; in test [4] (10 μM), “conferred significant resilience”; in test [4] (100 μM), “either ineffective or likely deleterious”; in test [4] (0.1 mM glucose, concentration not given) it was “confers significant resilience”; in [4] (absence of DJ-1 (DJ-1 KD)) it was “completely failed to restore synaptic endurance”; in [4] (neurons with shRNA targeting PGK1) it was “eliminated”. For the same compound, in test [5], the “resting (pre-stimulus) nerve terminal ATP” value is “slightly elevated; also recorded: higher starting ATP”. Besides, the “ATP depletion during stimulation” value in test [5] (600 APs at 10 Hz) was “blunted; also recorded: significantly smaller activity-induced drops in ATP”. For the same compound, in [5] (DJ-1 KD neurons), the “ATP production following activity” value is “no acceleration of ATP production; also recorded: inability of TZ to accelerate ATP kinetics”. Also, the “acceleration of ATP production after burst of activity” value in test [6] is given as “inability of TZ to accelerate ATP kinetics in absence of DJ-1”.
In the case of “A95K: medium affinity iATPSnFR2 variant, characterised as HaloTag-JFX650 fusion”, in [7], the “rate of ATP binding / fluorescence change, comparison” value is “faster than A95A.A119L”. The “fluorescence change on action potential firing” value in [8] is “much smaller amplitude”.
As for `OC[C@H]1OC(O)C[C@@H](O)[C@@H]1O` (some centres unmarked) [2dOG, 2-deoxyglucose], the “change in green fluorescence (ATP)” value with Rho° (ρ^0) cells was “green fluorescence rapidly dropped; also recorded: significant decrease in fluorescence”; in [9], “decreased fluorescence only in the parental LMTK-cells expressing the weakest affinity variant (A95A.A119L)”.
